Reference: ChEMBL document CHEMBL1201862, “PubChem BioAssay data set” (2004)
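How tested: cells in 96-well plates exposed to compound for 48 hours at five concentrations. Here, GI50 denotes the concentration required for 50% inhibition of growth.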 The source made the active and inactive calls. Cut-off read from the data, not from the text of the source: active = GI50 up to about 1.1 µM and inactive = higher.

Assays:
Test in all cases: growth of human tumour cells (NCI), 48 h
SK-OV-3 = system: SK-OV-3
MCF7 = system: MCF7
SF-295 = system: SF-295
M14 = system: M14
786-0 = system: 786-0
SF-268 = system: SF-268
NCI-H23 = system: NCI-H23
UACC-257 = system: UACC-257
TK-10 = system: TK-10
COLO 205 = system: COLO 205
SF-539 = system: SF-539
SNB-19 = system: SNB-19
CAKI-1 = system: CAKI-1
MDA-MB-435 = system: MDA-MB-435
SK-MEL-5 = system: SK-MEL-5
HCT-15 = system: HCT-15
OVCAR-4 = system: OVCAR-4
HOP-62 = system: HOP-62
HCC 2998 = system: HCC 2998
HT-29 = system: HT-29

Row | SMILES | GI50 (SK-OV-3) | GI50 (MCF7) | GI50 (SF-295) | GI50 (M14) | GI50 (786-0) | GI50 (SF-268) | GI50 (NCI-H23) | GI50 (UACC-257) | GI50 (TK-10) | GI50 (COLO 205) | GI50 (SF-539) | GI50 (SNB-19) | GI50 (CAKI-1) | GI50 (MDA-MB-435) | GI50 (SK-MEL-5) | GI50 (HCT-15) [µM] | GI50 (OVCAR-4) | GI50 (HOP-62) | GI50 (HCC 2998) | GI50 (HT-29)
1 | COc1cc(C(=O)Nc2nnc(S(N)(=O)=O)s2)cc(OC)c1OC | > 100 µM (inactive) | > 100 µM (inactive) | > 100 µM (inactive) | > 100 µM (inactive) | > 100 µM (inactive) | > 100 µM (inactive) | > 100 µM (inactive) | > 100 µM (inactive) | > 100 µM (inactive) | > 100 µM (inactive) | > 100 µM (inactive) | > 100 µM (inactive) | > 100 µM (inactive) | > 100 µM (inactive) | > 100 µM (inactive) | > 100 | > 100 µM (inactive) | > 100 µM (inactive) | > 100 µM (inactive) | –
2 | O=[N+]([O-])C(=C1Nc2ccccc2N1)C(Cl)=C(Cl)Cl | > 100 µM (inactive) | 39.7 µM (inactive) | > 100 µM (inactive) | 62.5 µM (inactive) | 63.4 µM (inactive) | 44.1 µM (inactive) | 84.5 µM (inactive) | > 100 µM (inactive) | > 100 µM (inactive) | > 100 µM (inactive) | > 100 µM (inactive) | > 100 µM (inactive) | > 100 µM (inactive) | 88.1 µM (inactive) | > 100 µM (inactive) | 38.2 | 27 µM (inactive) | > 100 µM (inactive) | > 100 µM (inactive) | > 100 µM (inactive)
3 | COC(=O)c1cc(NC(=O)Cn2c3ccccc3c3ccccc32)cn1C | 25.6 µM (inactive) | 59 µM (inactive) | 26.9 µM (inactive) | > 100 µM (inactive) | 29.7 µM (inactive) | 30.6 µM (inactive) | 39.3 µM (inactive) | 53.8 µM (inactive) | 49.7 µM (inactive) | 45 µM (inactive) | 23.9 µM (inactive) | 39.4 µM (inactive) | 84.5 µM (inactive) | 78.5 µM (inactive) | 65.8 µM (inactive) | 92.7 | 17.3 µM (inactive) | 25.6 µM (inactive) | 78.9 µM (inactive) | 49.9 µM (inactive)
4 | CC(=O)O[C@@H]1C[C@@]23C[C@@]24CC[C@H](OC2OCC(O)C(O)C2O)C(C)(C)[C@@H]4CC=C3[C@]2(C)C[C@@H]3OC4(C[C@@H](C)[C@@H]3[C@@]12C)OC(O)[C@@]1(C)O[C@@H]41 (some centres not stated) | 30.4 µM (inactive) | 30.8 µM (inactive) | 25.7 µM (inactive) | 47.2 µM (inactive) | 25.2 µM (inactive) | 58.7 µM (inactive) | 34 µM (inactive) | 26.9 µM (inactive) | 36 µM (inactive) | 21.3 µM (inactive) | 20.8 µM (inactive) | 75.2 µM (inactive) | 46.1 µM (inactive) | 32.4 µM (inactive) | 19.7 µM (inactive) | 31.6 | 48.4 µM (inactive) | 27.4 µM (inactive) | 20.6 µM (inactive) | 33.2 µM (inactive)
5 | O=c1oc2ccccc2c(-c2ccc(O)cc2)c1Oc1ccccc1 | 34.8 µM (inactive) | 11.2 µM (inactive) | 22 µM (inactive) | 9.16 µM (inactive) | 23.1 µM (inactive) | 8.57 µM (inactive) | 6.32 µM (inactive) | 7.83 µM (inactive) | 8.05 µM (inactive) | 29.4 µM (inactive) | 20.7 µM (inactive) | 17.7 µM (inactive) | 24.5 µM (inactive) | 22.1 µM (inactive) | 14.1 µM (inactive) | 7.83 | 20.4 µM (inactive) | 24.1 µM (inactive) | 7.21 µM (inactive) | > 52.1 µM (inactive)
6 | O=C1NC(NCc2ccc(F)cc2)=N/C1=C\c1ccccc1Cl | 26.3 µM (inactive) | 19.6 µM (inactive) | 17.1 µM (inactive) | 15.6 µM (inactive) | 11.2 µM (inactive) | 24.2 µM (inactive) | – | 24.9 µM (inactive) | 21.5 µM (inactive) | 17.4 µM (inactive) | 32.1 µM (inactive) | 19.8 µM (inactive) | 23.9 µM (inactive) | 17.9 µM (inactive) | 13.4 µM (inactive) | 19.1 | 23.9 µM (inactive) | 19.1 µM (inactive) | 26.3 µM (inactive) | 15 µM (inactive)
7 | CS(=O)(=O)Nc1ccc2ccccc2c1 | > 100 µM (inactive) | > 100 µM (inactive) | > 100 µM (inactive) | > 100 µM (inactive) | > 100 µM (inactive) | > 100 µM (inactive) | > 100 µM (inactive) | > 100 µM (inactive) | > 100 µM (inactive) | > 100 µM (inactive) | > 100 µM (inactive) | > 100 µM (inactive) | > 100 µM (inactive) | > 100 µM (inactive) | > 100 µM (inactive) | > 100 | > 100 µM (inactive) | 95.7 µM (inactive) | > 100 µM (inactive) | > 100 µM (inactive)
8 | CCN(CC)CC(=O)O[C@]1(CC)C(=O)OCc2c1cc1n(c2=O)Cc2cc3ccccc3nc2-1 | 0.0826 µM (active) | < 0.01 µM (active) | 0.0102 µM (active) | < 0.0201 µM (active) | < 0.0107 µM (active) | < 0.012 µM (active) | < 0.016 µM (active) | 0.0798 µM (active) | 1.36 µM (inactive) | 0.209 µM (active) | < 0.0139 µM (active) | < 0.01 µM (active) | < 0.01 µM (active) | 0.0703 µM (active) | 0.0313 µM (active) | 0.17 | 0.201 µM (active) | < 0.01 µM (active) | 0.149 µM (active) | 0.0957 µM (active)
9 | Cc1nn(-c2ccccc2)c2c1N=C(C(=O)O)CC(c1ccccc1)=N2 | > 10 µM (inactive) | > 10 µM (inactive) | > 10 µM (inactive) | > 10 µM (inactive) | > 10 µM (inactive) | > 10 µM (inactive) | > 10 µM (inactive) | > 10 µM (inactive) | > 10 µM (inactive) | > 10 µM (inactive) | > 10 µM (inactive) | > 10 µM (inactive) | > 10 µM (inactive) | > 10 µM (inactive) | > 10 µM (inactive) | > 10 | > 10 µM (inactive) | > 10 µM (inactive) | > 10 µM (inactive) | > 10 µM (inactive)
10 | O=c1[nH]/c(=C/c2ccc(OCc3ccccc3)cn2)c(=O)[nH]/c1=C/c1cccnc1 | 0.703 µM (active) | 0.378 µM (active) | 0.284 µM (active) | 0.344 µM (active) | 0.474 µM (active) | 0.542 µM (active) | 0.423 µM (active) | – | 2.18 µM (inactive) | 2.07 µM (inactive) | 0.401 µM (active) | 0.718 µM (active) | 0.479 µM (active) | 0.0845 µM (active) | 0.226 µM (active) | 0.254 | 1.25 µM (inactive) | 0.497 µM (active) | 1.19 µM (inactive) | 0.759 µM (active)
11 | COC(=O)[C@]1(c2cc3ccccc3n2S(=O)(=O)c2ccccc2)CC2CN(C(C)=O)C1CC2=O (some centres not stated) | 8.13 µM (inactive) | 1.69 µM (inactive) | 12.6 µM (inactive) | 1.96 µM (inactive) | 1.28 µM (inactive) | 2.34 µM (inactive) | 3.1 µM (inactive) | 2.77 µM (inactive) | 7.73 µM (inactive) | 2.42 µM (inactive) | 2.91 µM (inactive) | 3.26 µM (inactive) | 2.68 µM (inactive) | 2.34 µM (inactive) | 3.27 µM (inactive) | 2.48 | 3.58 µM (inactive) | 5.08 µM (inactive) | 3.23 µM (inactive) | 1.96 µM (inactive)
12 | C/C(=N\O)c1cccc(Nc2c3ccccc3nc3occc23)c1 | 10.4 µM (inactive) | 2.39 µM (inactive) | 4.24 µM (inactive) | 8.15 µM (inactive) | 13.4 µM (inactive) | 13.3 µM (inactive) | 4.99 µM (inactive) | 7.03 µM (inactive) | 10.1 µM (inactive) | 5.09 µM (inactive) | 4.25 µM (inactive) | 17.1 µM (inactive) | 1.96 µM (inactive) | 2.24 µM (inactive) | 3.07 µM (inactive) | 3.38 | 1.8 µM (inactive) | 3.13 µM (inactive) | 4.89 µM (inactive) | 9.1 µM (inactive)
13 | N#Cc1cc([N+](=O)[O-])ccc1NC(=O)/C(=N\NC(=O)c1ccncc1)C(c1cnc2ccc([N+](=O)[O-])cc2n1)[N+](=O)[O-] (configuration not stated) | 8.02 µM (inactive) | 1.55 µM (inactive) | 1.78 µM (inactive) | 1.63 µM (inactive) | 2.44 µM (inactive) | 2.86 µM (inactive) | 0.91 µM (active) | 1.55 µM (inactive) | 14.2 µM (inactive) | 5.69 µM (inactive) | 2.07 µM (inactive) | 2.83 µM (inactive) | 5.98 µM (inactive) | 1.03 µM (active) | 0.869 µM (active) | 2.03 | 2.09 µM (inactive) | 2.81 µM (inactive) | 9.27 µM (inactive) | 19.2 µM (inactive)
14 | COc1cc2nc(Cl)nc(NS(=O)(=O)c3cc4ccccc4s3)c2cc1OC | 28.1 µM (inactive) | 31.6 µM (inactive) | 33.8 µM (inactive) | 26.2 µM (inactive) | 35.4 µM (inactive) | 35.3 µM (inactive) | 25.7 µM (inactive) | 32.4 µM (inactive) | 28.3 µM (inactive) | 38.1 µM (inactive) | 37.2 µM (inactive) | 21 µM (inactive) | 33.3 µM (inactive) | 22.4 µM (inactive) | 19.1 µM (inactive) | 36.3 | 27.4 µM (inactive) | 31.5 µM (inactive) | 19 µM (inactive) | 27.5 µM (inactive)
